# In publication PMC11314561, “Design and Synthesis of Novel Aminoindazole-pyrrolo[2,3-b]pyridine Inhibitors of IKKα That Selectively Perturb Cellular Non-Canonical NF-κB Signalling” (Molecules, 2024):
# Assays:
# Experiment in all cases: kinase panel
# Type in all cases: biochemical
# PKD2(h) = target: T1, PKD2(h) (Homo sapiens, UniProt Q9BZL6)
# T1 sequence (Q9BZL6 1-878): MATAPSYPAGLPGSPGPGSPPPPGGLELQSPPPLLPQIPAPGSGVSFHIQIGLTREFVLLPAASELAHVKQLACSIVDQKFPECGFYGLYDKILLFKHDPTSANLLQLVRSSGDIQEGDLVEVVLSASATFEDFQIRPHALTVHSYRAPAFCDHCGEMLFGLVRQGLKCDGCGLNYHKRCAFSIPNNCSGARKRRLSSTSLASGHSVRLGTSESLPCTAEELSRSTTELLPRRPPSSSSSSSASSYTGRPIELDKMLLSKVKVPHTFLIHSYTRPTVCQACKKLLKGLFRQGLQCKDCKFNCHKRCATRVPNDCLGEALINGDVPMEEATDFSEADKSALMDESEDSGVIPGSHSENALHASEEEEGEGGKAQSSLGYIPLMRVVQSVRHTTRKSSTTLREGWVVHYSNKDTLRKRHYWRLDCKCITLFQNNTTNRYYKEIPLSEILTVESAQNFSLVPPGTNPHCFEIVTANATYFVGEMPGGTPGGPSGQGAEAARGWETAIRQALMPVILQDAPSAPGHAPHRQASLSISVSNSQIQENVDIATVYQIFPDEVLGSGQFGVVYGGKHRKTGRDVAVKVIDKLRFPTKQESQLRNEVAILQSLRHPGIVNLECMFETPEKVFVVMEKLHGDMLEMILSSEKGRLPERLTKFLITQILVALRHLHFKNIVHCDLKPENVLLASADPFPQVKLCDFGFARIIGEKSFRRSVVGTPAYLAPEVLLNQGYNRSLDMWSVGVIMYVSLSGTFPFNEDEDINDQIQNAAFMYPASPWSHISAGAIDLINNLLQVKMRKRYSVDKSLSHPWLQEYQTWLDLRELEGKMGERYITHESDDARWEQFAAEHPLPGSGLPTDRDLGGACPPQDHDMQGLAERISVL
# Method in brief: (§1)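 Values are percent inhibition from kinome-wide profiling of three series compounds across 231 kinases, with a structurally similar analogue tested on only 98 selected kinases.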
# Mer(h) = target: T2, Mer(h) (Homo sapiens, UniProt Q12866)
# T2 sequence (Q12866 21-999): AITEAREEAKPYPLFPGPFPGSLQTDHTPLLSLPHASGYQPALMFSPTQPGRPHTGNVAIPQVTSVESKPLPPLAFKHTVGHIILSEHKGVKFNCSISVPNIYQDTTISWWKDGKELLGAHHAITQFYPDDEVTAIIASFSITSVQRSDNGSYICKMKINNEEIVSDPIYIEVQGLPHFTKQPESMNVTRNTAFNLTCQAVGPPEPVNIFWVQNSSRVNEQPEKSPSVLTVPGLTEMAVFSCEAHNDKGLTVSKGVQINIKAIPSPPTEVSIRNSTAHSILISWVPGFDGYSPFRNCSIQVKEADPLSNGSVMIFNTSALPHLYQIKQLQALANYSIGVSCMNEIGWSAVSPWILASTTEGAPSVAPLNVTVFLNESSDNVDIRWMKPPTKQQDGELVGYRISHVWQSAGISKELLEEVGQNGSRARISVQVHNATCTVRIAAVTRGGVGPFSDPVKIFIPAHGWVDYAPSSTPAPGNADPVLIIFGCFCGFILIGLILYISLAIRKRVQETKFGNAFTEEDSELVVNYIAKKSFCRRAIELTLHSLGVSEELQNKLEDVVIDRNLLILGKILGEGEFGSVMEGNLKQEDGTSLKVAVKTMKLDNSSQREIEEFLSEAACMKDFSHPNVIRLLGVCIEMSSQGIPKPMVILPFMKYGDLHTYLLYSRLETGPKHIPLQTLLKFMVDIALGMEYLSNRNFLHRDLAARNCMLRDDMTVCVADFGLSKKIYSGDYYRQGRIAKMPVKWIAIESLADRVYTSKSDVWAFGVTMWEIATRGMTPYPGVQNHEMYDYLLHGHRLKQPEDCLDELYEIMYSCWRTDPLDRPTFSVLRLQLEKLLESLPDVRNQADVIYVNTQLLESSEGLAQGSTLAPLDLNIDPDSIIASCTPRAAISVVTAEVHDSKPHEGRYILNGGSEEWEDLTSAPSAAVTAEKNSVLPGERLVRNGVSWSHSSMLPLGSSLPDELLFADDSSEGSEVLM
# Method in brief: as §1
# GCK(h) = target: T3, GCK(h) (Homo sapiens, UniProt Q12851)
# T3 sequence (Q12851 1-820): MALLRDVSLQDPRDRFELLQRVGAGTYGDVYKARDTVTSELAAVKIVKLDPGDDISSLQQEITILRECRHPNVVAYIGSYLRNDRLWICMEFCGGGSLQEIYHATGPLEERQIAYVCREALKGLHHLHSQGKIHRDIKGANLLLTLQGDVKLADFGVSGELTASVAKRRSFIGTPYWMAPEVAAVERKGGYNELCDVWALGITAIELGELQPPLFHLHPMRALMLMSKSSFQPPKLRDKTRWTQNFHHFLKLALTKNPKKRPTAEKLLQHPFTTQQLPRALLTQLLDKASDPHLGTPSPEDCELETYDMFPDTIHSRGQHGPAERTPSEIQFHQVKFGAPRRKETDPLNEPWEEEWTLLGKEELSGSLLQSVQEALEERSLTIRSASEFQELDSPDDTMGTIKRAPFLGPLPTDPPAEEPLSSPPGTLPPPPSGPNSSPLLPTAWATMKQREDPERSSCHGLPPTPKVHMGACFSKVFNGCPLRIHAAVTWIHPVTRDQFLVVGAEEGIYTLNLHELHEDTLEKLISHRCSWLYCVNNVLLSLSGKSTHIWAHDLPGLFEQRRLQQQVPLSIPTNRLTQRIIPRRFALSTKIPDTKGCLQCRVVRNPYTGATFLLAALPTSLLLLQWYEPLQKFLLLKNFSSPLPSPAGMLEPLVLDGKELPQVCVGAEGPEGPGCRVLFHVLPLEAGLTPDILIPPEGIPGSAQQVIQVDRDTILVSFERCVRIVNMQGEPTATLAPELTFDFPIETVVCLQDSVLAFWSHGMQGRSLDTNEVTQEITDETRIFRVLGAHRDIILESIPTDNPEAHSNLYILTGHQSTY
# Method in brief: as §1
# EGFR(h) = EGFR(h) (Homo sapiens, UniProt P00533)
# Method in brief: as §1
# MAPKAP-K2(h) = MAPKAP-K2(h) (Homo sapiens, UniProt P49137)
# Method in brief: as §1
# JNK3(h) = JNK3(h) (Homo sapiens, UniProt P53779)
# Method in brief: as §1
# cSRC(h) = cSRC(h) (Homo sapiens, UniProt P12931)
# Method in brief: as §1
# JNK3(h), sequence (P53779 whole entry): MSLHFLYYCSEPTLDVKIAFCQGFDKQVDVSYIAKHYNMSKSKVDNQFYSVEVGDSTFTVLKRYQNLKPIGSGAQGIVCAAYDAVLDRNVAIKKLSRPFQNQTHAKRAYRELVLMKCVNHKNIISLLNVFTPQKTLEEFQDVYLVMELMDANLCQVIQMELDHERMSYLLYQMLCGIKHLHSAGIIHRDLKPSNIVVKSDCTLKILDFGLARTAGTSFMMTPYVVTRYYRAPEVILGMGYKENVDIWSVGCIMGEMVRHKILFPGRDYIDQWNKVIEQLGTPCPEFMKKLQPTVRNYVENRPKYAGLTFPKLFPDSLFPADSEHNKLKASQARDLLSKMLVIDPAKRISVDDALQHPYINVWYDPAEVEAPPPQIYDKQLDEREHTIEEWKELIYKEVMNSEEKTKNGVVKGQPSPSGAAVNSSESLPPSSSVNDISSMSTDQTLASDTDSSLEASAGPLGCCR
# EGFR(h), sequence (P00533 25-1210): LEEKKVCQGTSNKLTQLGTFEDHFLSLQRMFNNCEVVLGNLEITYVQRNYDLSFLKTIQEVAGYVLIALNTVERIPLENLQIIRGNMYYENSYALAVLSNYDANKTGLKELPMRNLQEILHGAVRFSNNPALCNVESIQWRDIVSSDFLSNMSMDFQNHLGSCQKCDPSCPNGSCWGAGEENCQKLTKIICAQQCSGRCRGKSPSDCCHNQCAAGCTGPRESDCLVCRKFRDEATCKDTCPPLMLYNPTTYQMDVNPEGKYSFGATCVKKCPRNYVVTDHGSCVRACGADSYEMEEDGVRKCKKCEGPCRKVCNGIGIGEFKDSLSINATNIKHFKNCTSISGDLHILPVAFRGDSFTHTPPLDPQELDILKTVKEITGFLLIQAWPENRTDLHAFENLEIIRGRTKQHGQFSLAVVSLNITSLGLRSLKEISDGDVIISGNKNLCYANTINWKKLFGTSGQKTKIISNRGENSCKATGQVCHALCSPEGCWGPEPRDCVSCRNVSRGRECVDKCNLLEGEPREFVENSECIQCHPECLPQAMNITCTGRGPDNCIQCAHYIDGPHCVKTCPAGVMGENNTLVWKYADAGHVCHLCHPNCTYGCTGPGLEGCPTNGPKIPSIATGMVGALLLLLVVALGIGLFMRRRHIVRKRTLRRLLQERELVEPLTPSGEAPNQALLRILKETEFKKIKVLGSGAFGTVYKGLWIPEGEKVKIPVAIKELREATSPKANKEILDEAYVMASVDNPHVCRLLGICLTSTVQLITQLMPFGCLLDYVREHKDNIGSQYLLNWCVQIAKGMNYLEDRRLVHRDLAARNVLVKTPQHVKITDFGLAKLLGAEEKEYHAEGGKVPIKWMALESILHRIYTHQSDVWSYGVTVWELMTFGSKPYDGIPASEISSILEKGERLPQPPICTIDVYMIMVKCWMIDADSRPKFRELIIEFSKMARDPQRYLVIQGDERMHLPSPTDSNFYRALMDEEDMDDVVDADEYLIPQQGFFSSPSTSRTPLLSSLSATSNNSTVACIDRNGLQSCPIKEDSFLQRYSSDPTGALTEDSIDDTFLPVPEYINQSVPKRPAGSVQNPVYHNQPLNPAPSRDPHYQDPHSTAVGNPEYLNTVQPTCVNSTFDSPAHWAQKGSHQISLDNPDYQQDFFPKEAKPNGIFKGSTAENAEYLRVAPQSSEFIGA
# cSRC(h), sequence (P12931 whole entry): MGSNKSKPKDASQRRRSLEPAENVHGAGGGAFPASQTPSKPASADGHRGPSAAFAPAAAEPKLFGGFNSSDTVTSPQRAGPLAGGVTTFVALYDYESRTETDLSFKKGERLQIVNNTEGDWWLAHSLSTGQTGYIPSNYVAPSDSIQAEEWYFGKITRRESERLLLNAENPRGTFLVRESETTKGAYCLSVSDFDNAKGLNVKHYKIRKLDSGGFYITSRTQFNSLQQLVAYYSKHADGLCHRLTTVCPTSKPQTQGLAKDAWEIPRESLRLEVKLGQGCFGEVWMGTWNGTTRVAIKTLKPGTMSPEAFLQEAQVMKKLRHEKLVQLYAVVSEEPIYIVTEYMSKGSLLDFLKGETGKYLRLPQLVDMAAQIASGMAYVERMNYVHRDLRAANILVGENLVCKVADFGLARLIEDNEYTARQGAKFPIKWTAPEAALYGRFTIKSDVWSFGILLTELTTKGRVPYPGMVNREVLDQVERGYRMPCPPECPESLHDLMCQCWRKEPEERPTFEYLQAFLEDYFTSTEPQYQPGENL
# MAPKAP-K2(h), sequence (P49137 whole entry): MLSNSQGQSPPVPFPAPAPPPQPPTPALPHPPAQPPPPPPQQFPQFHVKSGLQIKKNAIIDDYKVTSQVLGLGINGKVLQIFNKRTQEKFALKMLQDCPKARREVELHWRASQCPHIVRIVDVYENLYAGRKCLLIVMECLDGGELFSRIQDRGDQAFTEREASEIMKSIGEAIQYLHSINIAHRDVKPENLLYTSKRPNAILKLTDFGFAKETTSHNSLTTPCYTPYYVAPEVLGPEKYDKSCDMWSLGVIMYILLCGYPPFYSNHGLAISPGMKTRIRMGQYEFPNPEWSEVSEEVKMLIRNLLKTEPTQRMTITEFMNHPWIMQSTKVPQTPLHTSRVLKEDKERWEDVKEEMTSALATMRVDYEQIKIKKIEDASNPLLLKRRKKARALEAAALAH
SMILES,inhibition at 1 µM (PKD2(h)) [%],inhibition at 1 µM (Mer(h)) [%],inhibition at 1 µM (GCK(h)) [%],inhibition at 1 µM (EGFR(h)) [%],inhibition at 1 µM (MAPKAP-K2(h)) [%],inhibition at 1 µM (JNK3(h)) [%],inhibition at 1 µM (cSRC(h)) [%]
Nc1n[nH]c2ccc(-c3ccnc4[nH]c(-c5ccccc5)cc34)cc12 [Compound 4],8,88,98,13,38,99,42
Nc1n[nH]c2ccc(-c3ccnc4[nH]c(-c5cccc(OCc6ccccc6)c5)cc34)cc12 [Compound 5r [SU1261]],-1,27,86,5,-3,86,26
Nc1n[nH]c2ccc(-c3ccnc4[nH]c(-c5ccnc(OCc6ccccc6)c5)cc34)cc12 [Compound 6g [SU1349]],-5,12,71,-8,1,62,-28
